In PubChem BioAssay (NCI) one finds GI50 and TGI data, which are given here for 8 molecules.

Some test systems named below: U251 CNS; SNB-19 CNS; IGROV1 ovarian; UO-31 renal; NCI-H522 lung; NCI-H226 lung; RPMI-8226 leukemia; PC-3 prostate; NCI-H460 lung; M14 melanoma.
Experiment in all cases: inhibition of tumour cell growth, NCI panel, 48 h

“And” between values parts separate entries of the source, which are not always exact repeats. Identical values can stand only once.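 How tested: cells in 96-well plates exposed to compound for 48 hours at five concentrations. Here, GI50 denotes the concentration required for 50% inhibition of growth. TGI is the concentration that stops growth completely.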 Bounds are passed on as bounds.

`CCCCC[C@H]1CC=C2C(=O)C=C[C@@H]2CC=CCCCC(=O)O[C@@H](CCCCC)CC=C2C(=O)C=C[C@@H]2CC=CCCCC(=O)O[C@@H](CCCCC)CC=C2C(=O)C=C[C@@H]2CC=CCCCC(=O)O1`: the GI50 in the assay on U251 CNS is 158 nM; in the assay with SNB-19 CNS, 550 nM; with IGROV1 ovarian, 279 nM; in the assay with UO-31 renal it was 457 nM; in the assay on NCI-H522 lung, 218 nM; in the assay on NCI-H226 lung, 1130 nM. For the same molecule, the GI50 was 256 nM in the assay with RPMI-8226 leukemia, 342 nM with PC-3 prostate, 488 nM with NCI-H460 lung and 279 nM in the assay with M14 melanoma. Also, the TGI was 0.315 µM in the assay on U251 CNS; > 8.75 µM in the assay on SNB-19 CNS; 1.57 µM with IGROV1 ovarian; 1.63 µM with UO-31 renal; 797 nM with NCI-H522 lung; 3.81 µM in the assay with NCI-H226 lung. In addition, the TGI in the assay with RPMI-8226 leukemia came out at 0.821 µM; in the assay on PC-3 prostate, 1.5 µM; in the assay with NCI-H460 lung, 2.87 µM; with M14 melanoma it was 1.79 µM.

`Oc1[nH]c(N=C2N=c3ccccc3=N2)c2ccccc12`: the GI50 with U251 CNS was 3400 nM; in the assay on SNB-19 CNS, 15700 nM; in the assay on IGROV1 ovarian, 1280 nM; with UO-31 renal it was 4580 nM; in the assay with NCI-H522 lung it was 11200 nM; in the assay with NCI-H226 lung it was 10400 nM. Besides, the GI50 is 14900 nM in the assay on RPMI-8226 leukemia, 6340 nM in the assay on PC-3 prostate, 3010 nM in the assay on NCI-H460 lung and 12200 nM with M14 melanoma. Besides, the TGI is 42.3 µM in the assay on U251 CNS; 93 µM with SNB-19 CNS; 33.7 µM in the assay on IGROV1 ovarian; 18.6 µM with UO-31 renal; 41600 nM in the assay with NCI-H522 lung; 30 µM in the assay on NCI-H226 lung. The TGI with RPMI-8226 leukemia was found to be 72.1 µM; in the assay on PC-3 prostate, 73.8 µM; with NCI-H460 lung, 21 µM; in the assay with M14 melanoma, 38.8 µM.

Regarding `O=C(O)C(Br)C(Br)C(=O)O` (stereo not drawn), the TGI in the assay on U251 CNS was > 100 µM; in the assay on SNB-19 CNS, > 100 µM; with IGROV1 ovarian it was > 100 µM; in the assay with UO-31 renal it was > 100 µM; in the assay with NCI-H522 lung, > 100000 nM; in the assay on NCI-H226 lung it was > 100 µM. The TGI in the assay on RPMI-8226 leukemia, with PC-3 prostate, in the assay on NCI-H460 lung and in the assay with M14 melanoma was > 100 µM each time.

As for `CCCCCCCCCCCC[N+](C)(C)Cc1ccccc1`, the GI50 was 1480 nM in the assay with U251 CNS; 2110 nM with SNB-19 CNS; 1430 nM with IGROV1 ovarian; 10000 nM with UO-31 renal; 1530 nM in the assay with NCI-H522 lung; 2840 nM in the assay with NCI-H226 lung. Further, the GI50 is 1280 nM in the assay with RPMI-8226 leukemia, 490 nM in the assay with PC-3 prostate, 3420 nM in the assay with NCI-H460 lung and 1920 nM with M14 melanoma. Also, the TGI with U251 CNS amounted to 3.51 µM; in the assay on SNB-19 CNS, 7.12 µM; with IGROV1 ovarian, 3.66 µM; in the assay with UO-31 renal, 25.9 µM; with NCI-H522 lung, 3950 nM; in the assay with NCI-H226 lung, 18.6 µM. Also, the TGI turned out to be 3.31 µM in the assay with RPMI-8226 leukemia, 3.25 µM in the assay on PC-3 prostate, 12.7 µM in the assay on NCI-H460 lung and 4.32 µM in the assay with M14 melanoma.

On to `CCN1C(=O)N(CC)C2C1NN=c1s/c(=C\c3cccs3)c(=O)n12` (stereo not drawn), for which the GI50 was 245 nM with U251 CNS; 506 nM with SNB-19 CNS; 217 nM with IGROV1 ovarian; 594 nM with UO-31 renal; 97.4 nM in the assay on NCI-H522 lung; 2760 nM with NCI-H226 lung. Further, the GI50 with RPMI-8226 leukemia is 412 nM; in the assay on PC-3 prostate, 120 nM; in the assay on NCI-H460 lung it was 119 nM; in the assay with M14 melanoma it was 105 nM. The TGI in the assay with U251 CNS is > 100 µM; in the assay on SNB-19 CNS it was > 100 µM; in the assay with IGROV1 ovarian it was > 100 µM; with UO-31 renal, > 100 µM; in the assay on NCI-H522 lung, > 100000 nM; in the assay on NCI-H226 lung, > 23 µM. Also, the TGI with RPMI-8226 leukemia, with PC-3 prostate and in the assay on M14 melanoma was > 100 µM throughout.

As for `COC1CC(C)C(OC)c2cc(O)cc(c2O)NC(=O)/C(C)=C/C=C\C(C)C(OC(N)=O)/C(C)=C\C(C)C1OC` (stereo not drawn), the GI50 with U251 CNS was 614 nM; in the assay with SNB-19 CNS, 649 nM; with IGROV1 ovarian, 273 nM and 506 nM; in the assay on UO-31 renal, 8320 nM; in the assay on NCI-H522 lung, 57.5 nM and 98.9 nM; in the assay on RPMI-8226 leukemia, 174 nM and 383 nM. In addition, the GI50 is 201 nM and 440 nM with PC-3 prostate; 348 nM and 420 nM with NCI-H460 lung; 267 nM and 1270 nM with M14 melanoma. The TGI is 16.1 µM and 23.6 µM in the assay with U251 CNS; 23.7 µM and 72.3 µM in the assay with SNB-19 CNS; 15.9 µM and 8 µM in the assay on IGROV1 ovarian; 17.4 µM and 15.6 µM in the assay on UO-31 renal; 683 nM and 913 nM in the assay with NCI-H522 lung; 24.3 µM and 24.4 µM in the assay on NCI-H226 lung. Also, the TGI is 32.4 µM and 5.93 µM with RPMI-8226 leukemia; 16.4 µM and 8.51 µM with PC-3 prostate; 18.4 µM and 8.56 µM in the assay with NCI-H460 lung; 18.7 µM and 10.5 µM in the assay with M14 melanoma.

Regarding `C=C1C(=O)O[C@H]2[C@H]1CC/C(Cn1cc(Cc3c[nH]c4ccccc34)nn1)=C\CC[C@@]1(C)O[C@@H]21`, the GI50 with U251 CNS was 1890 nM; in the assay with SNB-19 CNS it was 2550 nM; in the assay with IGROV1 ovarian, 1920 nM; in the assay with UO-31 renal, 1490 nM; in the assay on NCI-H522 lung it was 1430 nM; in the assay with NCI-H226 lung, 2100 nM. Besides, the GI50 in the assay on RPMI-8226 leukemia was 2110 nM; in the assay with PC-3 prostate, 1880 nM; with NCI-H460 lung, 3510 nM; with M14 melanoma, 1310 nM. For the same molecule, the TGI was found to be 3.63 µM in the assay on U251 CNS; 6.33 µM in the assay with SNB-19 CNS; 3.84 µM in the assay on IGROV1 ovarian; 2.86 µM with UO-31 renal; 3000 nM in the assay on NCI-H522 lung; 4.75 µM in the assay with NCI-H226 lung. Besides, the TGI in the assay with RPMI-8226 leukemia worked out at 5.35 µM; in the assay with PC-3 prostate, 3.81 µM; in the assay on NCI-H460 lung, 10.6 µM; with M14 melanoma, 3.07 µM.

Take `CCC#CC[C@H](O)C/C=C1/C(=O)C=C[C@@H]1C/C=C\CCCC(=O)OC`: the GI50 in the assay with U251 CNS is 695 nM; with SNB-19 CNS it was 3290 nM; with IGROV1 ovarian, 1930 nM; in the assay on UO-31 renal, 864 nM; in the assay with NCI-H522 lung, 673 nM; in the assay on NCI-H226 lung, 863 nM. Also, the GI50 with RPMI-8226 leukemia is 657 nM; with PC-3 prostate it was 1420 nM; with NCI-H460 lung, 1310 nM; with M14 melanoma it was 1320 nM. Moreover, the TGI came to 1.99 µM in the assay on U251 CNS; 10.3 µM in the assay on SNB-19 CNS; 7.84 µM in the assay on IGROV1 ovarian; 1.66 µM in the assay on UO-31 renal; 1680 nM in the assay with NCI-H522 lung; 1.9 µM in the assay with NCI-H226 lung. Further, the TGI with RPMI-8226 leukemia was found to be 2.86 µM; in the assay on PC-3 prostate it was 5.25 µM; with NCI-H460 lung, 3.55 µM; with M14 melanoma, 5.12 µM.
